# Measurements: patent US11541065B2, “Compositions and methods for treating brain injury” (UNM RAINFOREST INNOVATIONS, priority 2018, dated 2023)
# How the values were obtained:
# ERK MAPK = ERK MAPK phosphorylation in ipsilateral cortex after MCAO (immunoblot); format: in vivo, Wistar rats; conditions: HHcy rats, MCAO 60 min, three hours of reperfusion, vs vehicle treated rats
# Experimental: FIG. 10. ERK MAPK phosphorylation. (A) Control and hyperhomocysteinemic (HHcy) rats were subjected to MCAO for 60 min followed by reperfusion (sham, 0, 3, 6, 12 h). Cortical tissue lysates from the ipsilateral hemisphere were analyzed by immunoblotting, using anti-pERK and anti-ERK antibodies. (B) Control, HHcy and HHcy rats treated with NVP-AAM077 (HHcy+NVP) were subjected to MCAO for 60 min followed by reperfusion for 3 h. Cortical tissue lysates from the ipsilateral hemisphere were analyzed by immunoblotting, using anti-pERK and anti-ERK antibodies. The extent of ERK MAPK phosphorylation was quantified using computer-assisted densitometry and Image J analysis. Values are mean±SEM (n=5). (A) *p<0.001 from corresponding control. (B) *p<0.001 from HHcy.
# Next, whether a mild ischemic insult under hyperhomocysteinemic condition could lead to prolonged increase in ERK MAPK phosphorylation was evaluated using a middle cerebral artery occlusion (MCAO) model. Normal and hyperhomocysteinemic Wistar rats were subjected to MCAO for 60 minutes followed by reperfusion for specified time periods (0, 3, 6, 12 h). […] NVP-AM077, however, blocks the prolonged phosphrylation of ERK MAPK in hyperhomocysteinemic rats at three hours of reperfusion. […]
# [1] = Total plasma homocysteine after osmotic pump implantation, mice (HPLC); format: in vivo, WT and GluN2A-KO mice; conditions: mouse, subcutaneous, 200 mM solution (200 μl osmotic pump, flow rate 1 μl/hr), osmotic pump with 200 mM L-homocysteine; for concentration at 5 day: day 5
# Experimental: L-homocysteine (200 mM) was freshly prepared by alkali hydrolysis of L-homocysteine thiolactone hydrochloride followed by neutralization, and maintained in 0.02 mM of N-Tris(hydroxymethyl)methyl-2-aminoethanesulfonic acid buffer pH 7.4 as previously described (Poddar et al., 2001, Circulation, 103:2717-2723). Osmotic pumps (Alzet, 2ML1, flow rate 10 μl/hr; Durect Corp., Cupertino, Calif.) containing either 2 ml of freshly prepared 200 mM L-homocysteine (for hyperhomocysteinemia) or normal saline (for control) were surgically implanted subcutaneously on the back and posterior to the scapulae of male Wistar rats under anesthesia (2% isoflurane in medical grade oxygen). The incision was closed after implantation and the rats were allowed to recover in their cage. For both WT and GluN2A-KO mice, osmotic pumps (Alzet, 2001, flow rate 1 μl/hr; Durect Corp., Cupertino, Calif.) containing either 200 μl of freshly prepared 200 mM L-homocysteine (for hyperhomocysteinemia) or normal saline (for control) were implanted similarly.
# Blood was obtained from rats (retro-orbital) and mice (cardiac puncture) under anesthesia with 2% isoflurane in medical grade oxygen, before installation of osmotic pumps (0 day) and at various time points after installation of osmotic pumps (rats: day 3, day 5, and day 7; mice: day 3 and day 5). Blood was collected in standardized VACUTAINER venous blood collection EDTA-tubes (ThermoFisher Scientific, Inc., Waltham, Mass.) and centrifuged at 3,500 rpm for 15 minutes. The plasma obtained was analyzed for total plasma homocysteine levels using high performance liquid chromatography with post-column fluorescence detection as previously described (Gilfix et al., 1997, Clin Chem 43:687-688; Jacobsen et al., 1994, Clin Chem 40:873-881; Miller et al., 2013, Am J Clin Nutr 97:827-834).
SMILES,ERK MAPK phosphorylation in ipsilateral cortex (ERK MAPK),"concentration at 3 day ([1]; GluN2A-KO mice, day 3, day 0 5.72±0.33 μM)",concentration at 5 day ([1]; GluN2A-KO mice),"concentration at 3 day ([1]; WT mice, day 3, day 0 6.6±0.73 μM)",concentration at 5 day ([1]; WT mice)
"C[C@H](NC(c1cccc2[nH]c(=O)c(=O)[nH]c12)P(=O)(O)O)c1ccc(Br)cc1 (stereo partly drawn) [NVP-AAM077, ({[(1S)-1-(4-bromophenyl)ethyl]amino}-(2,3-dioxo-1,4-dihydroquinoxalin-5-yl)methyl)phosphonic acid]",significant reduction ERK MAPK phosphorylation,,,,
N[C@@H](CCS)C(=O)O [L-homocysteine],,18.5 ± 2.55 µM,15.9 ± 2.09 µM,19 ± 1.68 µM,16.7 ± 1.73 µM
